18 compounds from patent US7960383B2, “Pyridazin-3(2H)-one derivatives and their use as PDE4 inhibitors” (Laboratorios Almirall SA, priority 2004, dated 2011) can be followed below.

The term IC50 denotes the concentration at which inhibition is half-maximal.

Chain of PDE4 (Q07343 whole entry): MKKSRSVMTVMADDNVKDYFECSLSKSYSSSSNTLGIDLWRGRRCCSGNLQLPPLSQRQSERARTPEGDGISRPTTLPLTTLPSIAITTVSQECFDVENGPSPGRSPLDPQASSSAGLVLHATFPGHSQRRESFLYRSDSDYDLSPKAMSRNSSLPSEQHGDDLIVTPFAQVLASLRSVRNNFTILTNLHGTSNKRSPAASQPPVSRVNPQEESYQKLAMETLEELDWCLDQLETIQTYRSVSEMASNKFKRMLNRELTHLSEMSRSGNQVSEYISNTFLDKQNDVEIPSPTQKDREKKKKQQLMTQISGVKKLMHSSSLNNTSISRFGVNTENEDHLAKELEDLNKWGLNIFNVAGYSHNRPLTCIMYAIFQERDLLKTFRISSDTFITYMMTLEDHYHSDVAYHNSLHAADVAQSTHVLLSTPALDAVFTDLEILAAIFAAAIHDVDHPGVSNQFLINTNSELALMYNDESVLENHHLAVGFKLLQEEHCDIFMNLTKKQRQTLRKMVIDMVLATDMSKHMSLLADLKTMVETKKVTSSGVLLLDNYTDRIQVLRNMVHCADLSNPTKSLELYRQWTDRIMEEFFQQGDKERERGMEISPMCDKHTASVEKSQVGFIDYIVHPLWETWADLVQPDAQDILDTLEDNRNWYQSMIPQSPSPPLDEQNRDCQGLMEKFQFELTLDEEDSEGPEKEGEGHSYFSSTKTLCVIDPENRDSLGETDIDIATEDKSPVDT

For this experiment, the target named is PDE4 (Homo sapiens, UniProt Q07343). Description: PDE4 Assay Procedure ([3H]-cAMP SPA). The experiment is classed as biochemical. The following applies: read-out: HPDE4B or IC50 PDE4. The method, then:
Compounds to be tested were resuspended in DMSO at a stock concentration of 1 mM. The compounds were tested at different concentrations varying from 10 pM to 10 μM to calculate an IC50. These dilutions were done in 96-well plates. In some cases, plates containing diluted compounds were frozen before being assayed. In these cases, the plates were thawed at room temperature and stirred for 15 minutes.
Ten microliters of the diluted compounds were poured into a “low binding” assay plate. Eighty microliters of reaction mixture containing 50 mM Tris pH 7.5, 8.3 mM MgCl2, 1.7 mM EGTA, and 15 nM [3H]-cAMP were added to each well. The reaction was initiated by adding ten microliters of a solution containing PDE4. The plate was then incubated under stirring for 1 hour at room temperature. After incubation the reaction was stopped with 50 microlitres of SPA beads, and the reaction was allowed to incubate for another 20 minutes at room temperature before measuring radioactivity using standard instrumentation.
The reaction mixture was prepared by adding 90 ml of H2O to 10 ml of 10× assay buffer (500 mM Tris pH 7.5, 83 mM MgCl2, 17 mM EGTA), and 40 microlitres 1 μCi/μL [3H]-cAMP. SPA beads solution was prepared by adding 500 mg to […] H2O for a final concentration of 20 mg/ml beads and 18 mM zinc sulphate.
As for `CCn1nc(C(=O)OCc2cccc(OC)c2)cc(Nc2cncc3ccccc23)c1=O` [Example 11, 3-Methoxybenzyl 1-ethyl-5-(isoquinolin-4-ylamino)-6-oxo-1,6-dihydropyridazine-3-carboxylate], the IC50 was 1.6 nM.
For `CCCCCCCCOC(=O)c1nn(CC)c(=O)c(Nc2cncc3ccccc23)c1C(C)=O` [Example 71, Octyl 4-acetyl-1-ethyl-5-(isoquinolin-4-ylamino)-6-oxo-1,6-dihydropyridazine-3-carboxylate] the value was 5 nM.
For `CCn1nc(C(=O)OCc2cccc(Cl)c2)c(C(C)=O)c(Nc2cncc3ccccc23)c1=O` [Example 69, 3-Chlorobenzyl 4-acetyl-1-ethyl-5-(isoquinolin-4-ylamino)-6-oxo-1,6-dihydropyridazine-3-carboxylate] the value was 0.49 nM.
As to `CCOC(=O)c1nn(CC)c(=O)c(Nc2cncc3ccccc23)c1C(C)=O` [Example 23, Ethyl 4-acetyl-1-ethyl-5-(isoquinolin-4-ylamino)-6-oxo-1,6-dihydropyridazine-3-carboxylate], the IC50 was determined as 14 nM.
Take `CCn1nc(C(=O)OC(C)c2ccccc2)c(C(C)=O)c(Nc2cncc3ccccc23)c1=O` (stereo not drawn) [Example 39, 1-Phenylethyl 4-acetyl-1-ethyl-5-(isoquinolin-4-ylamino)-6-oxo-1,6-dihydropyridazine-3-carboxylate]: the IC50 was found to be 1.5 nM.
With `CCn1nc(C(=O)OC(C)Cc2ccccc2)c(C(C)=O)c(Nc2cncc3ccccc23)c1=O` (stereo not drawn) [Example 38, 1-Methyl-2-phenylethyl 4-acetyl-1-ethyl-5-(isoquinolin-4-ylamino)-6-oxo-1,6-dihydropyridazine-3-carboxylate] the figure was 13 nM; with `CCn1nc(C(=O)OCc2ccccc2)c(C(C)=O)c(Nc2cccnc2)c1=O` [Example 26, Benzyl 4-acetyl-1-ethyl-6-oxo-5-(pyridin-3-ylamino)-1,6-dihydropyridazine-3-carboxylate], 5.1 nM.
For `CCn1nc(C(=O)OC2CCC2)c(C(C)=O)c(Nc2cncc3ccccc23)c1=O` [Example 36, Cyclobutyl 4-acetyl-1-ethyl-5-(isoquinolin-4-ylamino)-6-oxo-1,6-dihydropyridazine-3-carboxylate] the value was 44 nM; for `CCn1nc(C(=O)OCc2ccsc2)cc(Nc2cnccc2C)c1=O` [Example 10, Thiophen-3-ylmethyl 1-ethyl-5-(4-methylpyridin-3-ylamino)-6-oxo-1,6-dihydropyridazine-3-carboxylate], 19 nM; for `CCn1nc(C(=O)OCc2ccccc2)cc(Nc2cnccc2C)c1=O` [Example 1, Benzyl 1-ethyl-5-(4-methylpyridin-3-ylamino)-6-oxo-1,6-dihydropyridazine-3-carboxylate], 52 nM.
With `CCn1nc(C(=O)OCOC(=O)C(C)(C)CC)cc(Nc2cncc3ccccc23)c1=O` [Example 66, 2,2-Dimethylbutyryloxymethyl 1-ethyl-5-(isoquinolin-4-ylamino)-6-oxo-1,6-dihydropyridazine-3-carboxylate] the figure was 0.36 nM.
For `CCn1nc(C(=O)OC(C)c2ccccc2)cc(Nc2cncc3ccccc23)c1=O` (stereo not drawn) [Example 14, 1-Phenylethyl 1-ethyl-5-(isoquinolin-4-ylamino)-6-oxo-1,6-dihydropyridazine-3-carboxylate], the IC50 turned out to be 2.4 nM.
For the compound `CCn1nc(C(=O)OC(C)C)c(C(C)=O)c(Nc2cncc3ccccc23)c1=O` [Example 27, Isopropyl 4-acetyl-1-ethyl-5-(isoquinolin-4-ylamino)-6-oxo-1,6-dihydropyridazine-3-carboxylate], the IC50 was 16 nM.
For the compound `CCn1nc(C(=O)OC(C)c2ccccc2)c(C(C)=O)c(Nc2cnccc2C)c1=O` (stereo not drawn) [Example 41, 1-Phenylethyl 4-acetyl-1-ethyl-5-[(4-methylpyridin-3-yl)amino]-6-oxo-1,6-dihydropyridazine-3-carboxylate], the IC50 worked out at 69 nM.
For `CCn1nc(C(=O)OCc2ccc(Br)cc2)cc(Nc2cncc3ccccc23)c1=O` [Example 51, 4-Bromobenzyl 1-ethyl-5-(isoquinolin-4-ylamino)-6-oxo-1,6-dihydropyridazine-3-carboxylate] the value was 0.48 nM; for `CCn1nc(C(=O)OCc2cccc(Cl)c2)cc(Nc2cncc3ccccc23)c1=O` [Example 13, 3-Chlorobenzyl 1-ethyl-5-(isoquinolin-4-ylamino)-6-oxo-1,6-dihydropyridazine-3-carboxylate], 2.9 nM.
With `CCn1nc(C(=O)OCc2ccccc2)c(C(C)=O)c(Nc2cncc3ccccc23)c1=O` [Example 33, Benzyl 4-acetyl-1-ethyl-5-(isoquinolin-4-ylamino)-6-oxo-1,6-dihydropyridazine-3-carboxylate] the figure was 1.9 nM.
Turning to `CCn1nc(C(=O)OCCOc2ccccc2)cc(Nc2cncc3ccccc23)c1=O` [Example 49, 2-Phenoxyethyl 1-ethyl-5-(isoquinolin-4-ylamino)-6-oxo-1,6-dihydropyridazine-3-carboxylate], the concentration for half-maximal inhibition (IC50) stood at 0.73 nM.
